Source: patent US20260191807A1, “COMPOSITIONS AND METHODS FOR TREATMENT OF PRADER-WILLI SYNDROME” (ERX Pharmaceuticals Inc., priority 2022, published 2026)
Like-named read-outs stand apart in the source and are kept apart here.

What was measured:
C57BL/6 DIO mice [1] = assay: Body weights of C57BL/6 DIO mice during daily treatment; format: in vivo; settings: Celastrol 0.2 mg/kg IP daily; for Body weights (expressed as a percentage of day-1 weight) / Body weights (in grams): Belaronib 0.3 mg/kg SC, mean
C57BL/6 DIO mice [2] = assay: Daily food intake of C57BL/6 DIO mice; format: in vivo; settings: for Food intake (food weights in g/day): Belaronib 0.3 mg/kg SC, Celastrol 0.2 mg/kg IP daily, mean
Description: (§1) C57BL/6 mice were treated with test compound (Celastrol) or controls as shown in the table below from Day 1 to Day 15. […] One mouse was excluded from the study because it appeared resistant to nestlet shredding prior to treatment.
(§2) Male C57BL/6 DIO mice were obtained from Jackson Labs (Bar Harbor, ME). The mice arrived at ages 17 weeks and mice were housed 3 per cage on arrival. Prior to dosing in the study, the mice were singly housed.
(§3) All treatment volumes were 10 mL/kg. Utilizing the art-recognized nestlet shredding mouse model, […]. Celastrol and the vehicle control were administered intraperitoneally using a 30G needle. Beloranib was administered subcutaneously using a 30G needle. All treatments were administered daily in the afternoon at 17:00 h, 1 hour before dark cycle from Day 1 to end of dosing.
(§4) Celastrol was dissolved in a pharmaceutically-acceptable excipient, e.g., 50% Solutol/50% DMAC, and this stock solution aliquoted and stored at −80° C. until treatment day. On the day of treatment, an aliquot of the stock solution was thawed and diluted […] with saline to obtain the desired dosing solution strength in 5% Solutol/5% dimethylacetamide/90% saline. The vehicle control was 5% Solutol/5% dimethylacetamide/90% saline. Beloranib was dissolved in 100% DMSO, and this stock solution was aliquoted and stored at −80° C. until treatment day. On the day of treatment, an aliquot of the stock solution was thawed and diluted 1:10 with deionized (DI) water to obtain the desired dosing solution strength in 10% DMSO.
Daily food intake was calculated based on remaining food weight compared to food weight on the previous day using an Ohaus model CS 200 balance.

C57BL/6 DIO mice [3] = assay: Nestlet shredding test in C57BL/6 DIO mice; format: in vivo; settings: Belaronib 0.3 mg/kg SC, Celastrol 0.2 mg/kg IP daily, mean
Description: as §1, §2, §3, §4
The nestlet shredding test is an art-recognized animal model for human repetitive, anxiety, and/or compulsive behaviors. In the nestlet shredding test, a nestlet comprised of pulped fiber, e.g., cotton fiber, is preweighed and placed on top of cage bedding and the amount of the nestlet remaining intact after a test session of pre-determined time is evaluated.
Nestlet shredding was determined on day 1, day 6, day 11 and day 15 by placing a fresh nestlet prior to the dark cycle and measuring the weight of the remaining nestlet at 12 and 24 hours on an Ohaus model CS 200 balance. Percent shredding was calculated based on the initial nestlet weight.

Participants with PWS = settings: cited from earlier work; for weight change, mean difference: p<0.0001

Compound: CO[C@@H]1[C@H](OC(=O)/C=C/c2ccc(OCCN(C)C)cc2)CC[C@]2(CO2)[C@H]1[C@@]1(C)O[C@@H]1CC=C(C)C [Belaronib, Beloranib, reference compound]
- Body weights (expressed as a percentage of day-1 weight) (C57BL/6 DIO mice [1]; Day 1): 100.0%
- Body weights (in grams) (C57BL/6 DIO mice [1]; Day 1): 46.4 grams
- Body weights (expressed as a percentage of day-1 weight) (C57BL/6 DIO mice [1]; Day 2): 98.0%
- Body weights (in grams) (C57BL/6 DIO mice [1]; Day 2): 45.5 grams
- Body weights (expressed as a percentage of day-1 weight) (C57BL/6 DIO mice [1]; Day 3): 96.1%
- Body weights (in grams) (C57BL/6 DIO mice [1]; Day 3): 44.6 grams
- Body weights (expressed as a percentage of day-1 weight) (C57BL/6 DIO mice [1]; Day 4): 94.0%
- Body weights (in grams) (C57BL/6 DIO mice [1]; Day 4): 43.6 grams
- Body weights (expressed as a percentage of day-1 weight) (C57BL/6 DIO mice [1]; Day 5): 91.0%
- Body weights (in grams) (C57BL/6 DIO mice [1]; Day 5): 42.2 grams
- Body weights (expressed as a percentage of day-1 weight) (C57BL/6 DIO mice [1]; Day 6): 87.7%
- Body weights (in grams) (C57BL/6 DIO mice [1]; Day 6): 40.7 grams
- Body weights (expressed as a percentage of day-1 weight) (C57BL/6 DIO mice [1]; Day 7): 85.2%
- Body weights (in grams) (C57BL/6 DIO mice [1]; Day 7): 39.5 grams
- Body weights (expressed as a percentage of day-1 weight) (C57BL/6 DIO mice [1]; Day 8): 83.1%
- Body weights (in grams) (C57BL/6 DIO mice [1]; Day 8): 38.5 grams
- Body weights (expressed as a percentage of day-1 weight) (C57BL/6 DIO mice [1]; Day 9): 80.6%
- Body weights (in grams) (C57BL/6 DIO mice [1]; Day 9): 37.4 grams
- Body weights (expressed as a percentage of day-1 weight) (C57BL/6 DIO mice [1]; Day 10): 79.2%
- Body weights (in grams) (C57BL/6 DIO mice [1]; Day 10): 36.7 grams
- Body weights (expressed as a percentage of day-1 weight) (C57BL/6 DIO mice [1]; Day 11): 77.9%
- Body weights (in grams) (C57BL/6 DIO mice [1]; Day 11): 36.1 grams
- Body weights (expressed as a percentage of day-1 weight) (C57BL/6 DIO mice [1]; Day 12): 77.1%
- Body weights (in grams) (C57BL/6 DIO mice [1]; Day 12): 35.7 grams
- Body weights (expressed as a percentage of day-1 weight) (C57BL/6 DIO mice [1]; Day 13): 76.2%
- Body weights (in grams) (C57BL/6 DIO mice [1]; Day 13): 35.3 grams
- Body weights (expressed as a percentage of day-1 weight) (C57BL/6 DIO mice [1]; Day 14): 75.2%
- Body weights (in grams) (C57BL/6 DIO mice [1]; Day 14): 34.8 grams
- Body weights (expressed as a percentage of day-1 weight) (C57BL/6 DIO mice [1]; Day 15): 74.4%
- Body weights (in grams) (C57BL/6 DIO mice [1]; Day 15): 34.5 grams
- body weight lost (percentage of day 1 body weight) (C57BL/6 DIO mice [1]; at day 15, Beloranib 0.3 mg/kg SC, vehicle-treated mice lost 15.5%): 25.6%
- cumulative food intake, average total for the study (C57BL/6 DIO mice [2]; 15-day study, Beloranib 0.3 mg/kg SC, celastrol 0.2 mg/kg IP daily, vehicle 32.6 g): 28.1 g/mouse
- effect on food intake (in words) (C57BL/6 DIO mice [2]; Celastrol compared with positive control Beloranib): rebounded
- Food intake (food weights in g/day) (C57BL/6 DIO mice [2]; Day 1): 3.1 g/day
- Food intake (food weights in g/day) (C57BL/6 DIO mice [2]; Day 2): 1.5 g/day
- Food intake (food weights in g/day) (C57BL/6 DIO mice [2]; Day 3): 2.3 g/day
- Food intake (food weights in g/day) (C57BL/6 DIO mice [2]; Day 4): 1.9 g/day
- Food intake (food weights in g/day) (C57BL/6 DIO mice [2]; Day 5): 1.4 g/day
- Food intake (food weights in g/day) (C57BL/6 DIO mice [2]; Day 6): 1.2 g/day
- Food intake (food weights in g/day) (C57BL/6 DIO mice [2]; Day 7): 1.1 g/day
- Food intake (food weights in g/day) (C57BL/6 DIO mice [2]; Day 8): 1.5 g/day
- Food intake (food weights in g/day) (C57BL/6 DIO mice [2]; Day 9): 1.1 g/day
- Food intake (food weights in g/day) (C57BL/6 DIO mice [2]; Day 10): 1.9 g/day
- Food intake (food weights in g/day) (C57BL/6 DIO mice [2]; Day 11): 2.2 g/day
- Food intake (food weights in g/day) (C57BL/6 DIO mice [2]; Day 12): 2.6 g/day
- Food intake (food weights in g/day) (C57BL/6 DIO mice [2]; Day 13): 2.2 g/day
- Food intake (food weights in g/day) (C57BL/6 DIO mice [2]; Day 14): 2.2 g/day
- Food intake (food weights in g/day) (C57BL/6 DIO mice [2]; Day 15): 2.1 g/day
- food intake after rebound, similar to vehicle (C57BL/6 DIO mice [2]; day 10-11, 0.3 mg/kg SC daily): 2.2 g/day/mouse
- food intake, nadir (C57BL/6 DIO mice [2]; reduction initiated on day 2-3, 0.3 mg/kg SC daily): 1.1 g/day/mouse
- Nestlet Shredding (percent of nestlet shredded) (C57BL/6 DIO mice [3]; Day 1, 12 hour): 95.5%
- Nestlet Shredding (percent of nestlet shredded) (C57BL/6 DIO mice [3]; Day 6, 12 hour): 11.9%
- Nestlet Shredding (percent of nestlet shredded) (C57BL/6 DIO mice [3]; Day 6, 24 hour): 15.7%
- Nestlet Shredding (percent of nestlet shredded) (C57BL/6 DIO mice [3]; Day 11, 12 hour): 3.8%
- Nestlet Shredding (percent of nestlet shredded) (C57BL/6 DIO mice [3]; Day 11, 24 hour): 5.2%
- Nestlet Shredding (percent of nestlet shredded) (C57BL/6 DIO mice [3]; Day 15, 12 hour): 27.6%
- Nestlet Shredding (percent of nestlet shredded) (C57BL/6 DIO mice [3]; Day 15, 24 hour): 32.9%
- weight change, mean difference (Participants with PWS; 1.8 mg beloranib injection biweekly for 26 weeks, 95% CI −10.8 to −5.6): −8.2%
- most frequent adverse event (Participants with PWS; 1.8 mg or 2.4 mg injection biweekly): Injection site bruising
- weight change, mean difference (Participants with PWS; 2.4 mg beloranib injection biweekly for 26 weeks, 95% CI −12.1 to −6.8): −9.5%
- venous thrombotic events in beloranib-treated participants (Participants with PWS; imbalance compared to placebo, dosing stopped early): two fatal events of pulmonary embolism and two events of deep vein thrombosis
